Where two headings read alike, the source gives them in different places.
System: patients with advanced solid tumors
[1] = 30 mg BID 14d-on/14d-off (N = 7)
[2] = 40 mg BID 14d-on/14d-off (N = 4)
[3] = 50 mg BID 14d-on/14d-off (N = 4)
[4] = 65 mg BID 14d-on/14d-off (N = 6)

SMILES: Cc1cccc(-c2nn3c(c2-c2ccc4ncnn4c2/C=C/C(N)=O)CCC3)n1 [GFH018]
- TEAE: Urine protein present [1]: 0 n (%)
- TEAE: White blood cell count decreased [1]: 0 n (%)
- TEAE: White blood cells urine positive [1]: 0 n (%)
- TRAE: ALP increased [1]: 0 n (%)
- TRAE: ALT increased [1]: 2 (28.6%) n (%)
- TRAE: AST increased [1]: 2 (28.6%) n (%)
- TRAE: Anemia [1]: 0 n (%)
- TRAE: GGT increased [1]: 0 n (%)
- TRAE: LDH increased [1]: 1 (14.3%) n (%)
- TRAE: Lymphocyte count decreased [1]: 1 (14.3%) n (%)
- TRAE: Protein urine present [1]: 0 n (%)
- TRAE: Proteinuria [1]: 3 (42.9%) n (%)
- Treatment-emergent Proteinuria (grouped PTs), G1 [1]: 3 (42.9) n (%)
- Treatment-emergent Proteinuria (grouped PTs), G2 [1]: 1 (14.3) n (%)
- Treatment-emergent Proteinuria (grouped PTs), G3 [1]: 0 n (%)
- Treatment-emergent Proteinuria (grouped PTs: proteinuria and urine protein present), any grade [1]: 4 (57.1) n (%)
- At least one TEAE [2]: 4 (100%) n (%)
- At least one TRAE [2]: 4 (100%) n (%)
- TEAE: ALP increased [2]: 1 (25.0%) n (%)
- TEAE: ALT increased [2]: 0 n (%)
- TEAE: AST increased [2]: 0 n (%)
- TEAE: Abdominal distention [2]: 0 n (%)
- TEAE: Abdominal pain [2]: 0 n (%)
- TEAE: Anemia [2]: 1 (25.0%) n (%)
- TEAE: Asthenia [2]: 1 (25.0%) n (%)
- TEAE: Bilirubin conjugated increased [2]: 0 n (%)
- TEAE: Blood albumin decreased [2]: 0 n (%)
- TEAE: Blood bilirubin increased [2]: 0 n (%)
- TEAE: C-reactive protein increased [2]: 0 n (%)
- TEAE: Constipation [2]: 0 n (%)
- TEAE: Decreased appetite [2]: 0 n (%)
- TEAE: GGT increased [2]: 0 n (%)
- TEAE: Hypoalbuminemia [2]: 0 n (%)
- TEAE: LDH increased [2]: 1 (25.0%) n (%)
- TEAE: Lymphocyte count decreased [2]: 0 n (%)
- TEAE: Platelet count decreased [2]: 1 (25.0%) n (%)
- TEAE: Proteinuria [2]: 0 n (%)
- TEAE: Sinus tachycardia [2]: 1 (25.0%) n (%)
- TEAE: Urine protein present [2]: 0 n (%)
- TEAE: White blood cell count decreased [2]: 0 n (%)
- TEAE: White blood cells urine positive [2]: 0 n (%)
- TRAE: ALP increased [2]: 1 (25.0%) n (%)
- TRAE: ALT increased [2]: 0 n (%)
- TRAE: AST increased [2]: 0 n (%)
- TRAE: Anemia [2]: 0 n (%)
- TRAE: GGT increased [2]: 0 n (%)
- TRAE: LDH increased [2]: 1 (25.0%) n (%)
- TRAE: Lymphocyte count decreased [2]: 0 n (%)
- TRAE: Protein urine present [2]: 0 n (%)
- TRAE: Proteinuria [2]: 0 n (%)
- Treatment-emergent Proteinuria (grouped PTs), G1 [2]: 0 n (%)
- Treatment-emergent Proteinuria (grouped PTs), G2 [2]: 0 n (%)
- Treatment-emergent Proteinuria (grouped PTs), G3 [2]: 0 n (%)
- Treatment-emergent Proteinuria (grouped PTs: proteinuria and urine protein present), any grade [2]: 0 n (%)
- At least one TEAE [3]: 4 (100%) n (%)
- At least one TRAE [3]: 2 (50.0%) n (%)
- TEAE: ALP increased [3]: 1 (25.0%) n (%)
- TEAE: ALT increased [3]: 1 (25.0%) n (%)
- TEAE: AST increased [3]: 1 (25.0%) n (%)
- TEAE: Abdominal distention [3]: 1 (25.0%) n (%)
- TEAE: Abdominal pain [3]: 0 n (%)
- TEAE: Anemia [3]: 3 (75.0%) n (%)
- TEAE: Asthenia [3]: 0 n (%)
- TEAE: Bilirubin conjugated increased [3]: 0 n (%)
- TEAE: Blood albumin decreased [3]: 0 n (%)
- TEAE: Blood bilirubin increased [3]: 0 n (%)
- TEAE: C-reactive protein increased [3]: 0 n (%)
- TEAE: Constipation [3]: 0 n (%)
- TEAE: Decreased appetite [3]: 1 (25.0%) n (%)
- TEAE: GGT increased [3]: 1 (25.0%) n (%)
- TEAE: Hypoalbuminemia [3]: 0 n (%)
- TEAE: LDH increased [3]: 0 n (%)
- TEAE: Lymphocyte count decreased [3]: 0 n (%)
- TEAE: Platelet count decreased [3]: 0 n (%)
- TEAE: Proteinuria [3]: 0 n (%)
- TEAE: Sinus tachycardia [3]: 1 (25.0%) n (%)
- TEAE: Urine protein present [3]: 1 (25.0%) n (%)
- TEAE: White blood cell count decreased [3]: 0 n (%)
- TEAE: White blood cells urine positive [3]: 0 n (%)
- TRAE: ALP increased [3]: 1 (25.0%) n (%)
- TRAE: ALT increased [3]: 1 (25.0%) n (%)
- TRAE: AST increased [3]: 1 (25.0%) n (%)
- TRAE: Anemia [3]: 0 n (%)
- TRAE: GGT increased [3]: 1 (25.0%) n (%)
- TRAE: LDH increased [3]: 0 n (%)
- TRAE: Lymphocyte count decreased [3]: 0 n (%)
- TRAE: Protein urine present [3]: 1 (25.0%) n (%)
- TRAE: Proteinuria [3]: 0 n (%)
- Treatment-emergent Proteinuria (grouped PTs), G1 [3]: 1 (25.0) n (%)
- Treatment-emergent Proteinuria (grouped PTs), G2 [3]: 0 n (%)
- Treatment-emergent Proteinuria (grouped PTs), G3 [3]: 0 n (%)
- Treatment-emergent Proteinuria (grouped PTs: proteinuria and urine protein present), any grade [3]: 1 (25.0) n (%)
- At least one TEAE [4]: 5 (83.3%) n (%)
- At least one TRAE [4]: 5 (83.3%) n (%)
- TEAE: ALP increased [4]: 0 n (%)
- TEAE: ALT increased [4]: 0 n (%)
- TEAE: AST increased [4]: 2 (33.3%) n (%)
- TEAE: Abdominal distention [4]: 0 n (%)
- TEAE: Abdominal pain [4]: 1 (16.7%) n (%)
- TEAE: Anemia [4]: 3 (50.0%) n (%)
- TEAE: Asthenia [4]: 0 n (%)
- TEAE: Bilirubin conjugated increased [4]: 0 n (%)
- TEAE: Blood albumin decreased [4]: 0 n (%)
- TEAE: Blood bilirubin increased [4]: 1 (16.7%) n (%)
- TEAE: C-reactive protein increased [4]: 0 n (%)
- TEAE: Constipation [4]: 1 (16.7%) n (%)
- TEAE: Decreased appetite [4]: 1 (16.7%) n (%)
- TEAE: GGT increased [4]: 1 (16.7%) n (%)
- TEAE: Hypoalbuminemia [4]: 0 n (%)
- TEAE: LDH increased [4]: 0 n (%)
- TEAE: Lymphocyte count decreased [4]: 0 n (%)
- TEAE: Platelet count decreased [4]: 1 (16.7%) n (%)
- TEAE: Proteinuria [4]: 1 (16.7%) n (%)
- TEAE: Sinus tachycardia [4]: 2 (33.3%) n (%)
- TEAE: Urine protein present [4]: 1 (16.7%) n (%)
- TEAE: White blood cell count decreased [4]: 2 (33.3%) n (%)
- TEAE: White blood cells urine positive [4]: 1 (16.7%) n (%)
- TRAE: ALP increased [4]: 0 n (%)
- TRAE: ALT increased [4]: 0 n (%)
- TRAE: AST increased [4]: 2 (33.3%) n (%)
- TRAE: Anemia [4]: 2 (33.3%) n (%)
- TRAE: GGT increased [4]: 0 n (%)
- TRAE: LDH increased [4]: 0 n (%)
- TRAE: Lymphocyte count decreased [4]: 0 n (%)
- TRAE: Protein urine present [4]: 0 n (%)
- TRAE: Proteinuria [4]: 1 (16.7%) n (%)
- Treatment-emergent Proteinuria (grouped PTs), G1 [4]: 1 (16.7) n (%)
- Treatment-emergent Proteinuria (grouped PTs), G2 [4]: 1 (16.7) n (%)
- Treatment-emergent Proteinuria (grouped PTs), G3 [4]: 0 n (%)
- Treatment-emergent Proteinuria (grouped PTs: proteinuria and urine protein present), any grade [4]: 2 (33.3) n (%)
- safety profile of 7 d-on/7 d-off versus 14 d-on/14 d-off regimen (85 mg BID): not significantly different
- At least one TEAE (85 mg BID 7d-on/7d-off (N = 6)): 5 (83.3%) n (%)
- At least one TEAE (Table S3) (85 mg BID 7d-on/7d-off (N = 6)): 5 (83.3%) n (%)
- At least one TRAE (85 mg BID 7d-on/7d-off (N = 6)): 3 (50.0%) n (%)
- TEAE: ALP increased (85 mg BID 7d-on/7d-off (N = 6)): 1 (16.7%) n (%)
- TEAE: ALT increased (85 mg BID 7d-on/7d-off (N = 6)): 0 n (%)

From article PMC11007962, “First-in-human study of GFH018, a small molecule inhibitor of transforming growth factor-β receptor I inhibitor, in patients with advanced solid tumors” (BMC Cancer, 2024)
